Results on six molecules are retold here after PMC4830539, “Chemical Inhibition of Histone Deacetylases 1 and 2 Induces Fetal Hemoglobin through Activation of GATA2” (PLoS ONE, 2016).

One experiment relates to HbF. Also noted: method as in PMID 16888791, PMID 12393499, PMID 25808664, PMID 24606390, PMID 16939493. As to conditions: cell lines and primary cells; cited from earlier work.
The test system of the next experiment is HbF protein. Kind of experiment: HbF protein by flow cytometry in BM cells (CS1, CS2). It counts as cell-based, human. The conditions noted are these: 1 μM ACY-957 or 30 μM hydroxyurea. On the procedure:
CD34+ cells isolated from human bone marrow of healthy normal donors (Lonza, AllCells, or StemCell Technologies), referred to as BM cells throughout this work, were cultured using two distinct 2-phase culture systems. These systems have been described previously and are referred to as Culture System 1 (CS1) and Culture System 2 (CS2) throughout this work. CS1 expansion media is StemSpan SFEM (StemCell Technologies) supplemented with CC100 (StemCell Technologies), 100 U/mL penicillin and 100 μg/mL streptomycin. CC100 is a mix of Flt-3 ligand (FLT3LG), KIT ligand (KITLG), interleukin-3 (IL3), and interleukin-6 (IL6). CS1 differentiation media is StemSpan SFEM supplemented with 1 U/ml erythropoietin (EPO), 5 ng/mL IL3, 20 ng/mL KITLG, 2 μM dexamethasone, 1 μM beta-estradiol, 100 U/mL penicillin and 100 μg/mL streptomycin. CS2 expansion media is StemSpan SFEM supplemented with 1% glutamine, 40 μg/mL lipids (Sigma), 100 ng/mL KITLG, 10 ng/mL IL3, and 0.5 U/mL EPO. CS2 differentiation media is same as CS2 expansion media, except 3 U/mL EPO.
Flow cytometry was performed on a FC500 flow cytometer ([…]). Fetal hemoglobin protein was assayed using the Fetal Hemoglobin Test Kit (Life Technologies) according to manufacturer’s protocol. Samples were stained with FITC-conjugated mouse IgG1 anti-human HbF antibody (clone HbF-1, Life Technologies). Each sample was also stained with a FITC-conjugated mouse IgG1 isotype control antibody (clone X40, BD Biosciences) and used as a negative control. FETALtrol cells were used as positive controls (Trillium Diagnostics). TFRC and GYPA were detected on fresh cells by staining with 20 μL of PE-conjugated anti-human TFRC (clone M-A712, catalog 555537, BD Biosciences) and 0.5 μL of FITC- or APC-conjugated anti-human GYPA (clone GA-R2 (HIR2), catalog 559943 or 551336, BD Biosciences) in 200 μL PBS with 0.1% BSA for 40 min on ice. Forward and side scatter, or staining with 7AAD (catalog 559925, BD Biosciences), was used to identify viable cells.
To determine if the HBG mRNA induction observed in the presence of ACY-957 was associated with an increase in the HbF protein, CS1 and CS2 cells at day 5 were stained with a fluorescently conjugated anti-HbF antibody and evaluated by flow cytometry. HbF positive cells were increased by 2 to 3-fold upon treatment with ACY-957, which exceeded the response observed with hydroxyurea (Fig 2B and 2E).
For orientation: Flow cytometry measures light scatter and fluorescence of single cells or particles in a stream.

In the next experiment the test system is erythroid progenitors. On the set-up: method as in PMID 16939493. As to conditions: by suppressing the EPO-mediated survival of CD36highGYPAhigh cells; cited from earlier work.

Turning to `Nc1ccccc1NC(=O)c1ccc(CNC(=O)OCc2cccnc2)cc1` [MS-275], the HbF induction entry with HbF is recorded as “induce HbF”. `CCN(CC)Cc1ccc2cc(COC(=O)Nc3ccc(C(=O)NO)cc3)ccc2c1` [givinostat]: in the experiment on HbF, the HbF induction result is given as “induce HbF”. Consider `NC(=O)NO` [hydroxyurea, reference compound], for which, in the experiment with HbF protein (CS1, day 5), the HbF positive cells is given as 20% and the “MFI of HbF positive cells” value is reported as 52. For the same molecule, in the experiment with HbF protein (CS2, day 5), the HbF positive cells was 39% and the “MFI of HbF positive cells” value was 12. Regarding `C/C=C1\NC(=O)[C@H]2CSSCC/C=C/[C@H](CC(=O)N[C@H](C(C)C)C(=O)N2)OC(=O)[C@H](C(C)C)NC1=O` [romidepsin], the “effect on erythroid progenitors” value with erythroid progenitors is reported as “accumulation CD36^highGYPA^mid erythroid progenitors”. The HbF induction result in the experiment on HbF was “induce HbF”.

Regarding `CC(/C=C/C(=O)NO)=C\[C@@H](C)C(=O)c1ccc(N(C)C)cc1` [trichostatinA], in the experiment with erythroid progenitors, the “effect on erythroid progenitors” value is recorded as “accumulation CD36^highGYPA^mid erythroid progenitors”.

Take `O=C(CCCCCCC(=O)Nc1ccccc1)NO` [vorinostat]: the HbF induction result with HbF is “induce HbF”.
